Experiments:
Assay in all cases: MTT assay panel
Type in all cases: cell-based
SNU-398 = details: Homo sapiens; SNU-398 cells, 72 hours
Experimental: (§1) Compound 124 was further tested against a panel of selected solid and hematological cancer cell lines and selected normal cell lines in an MTT assay. Briefly, the various cell lines above were plated at different densities on day 1. […] Cell Titer AQueous One was added to each well, and the plates were read in a plate reader at OD 495.

L3.6pl = details: Homo sapiens; L3.6pl cells, 72 hours
Experimental: as §1

DLD-1 = details: Homo sapiens; DLD-1 cells, 72 hours
Experimental: as §1

RKO = details: Homo sapiens; RKO cells, 72 hours
Experimental: as §1

NCI-H187 = details: Homo sapiens; NCI-H187 cells, 72 hours
Experimental: as §1

NCI-H69 = details: Homo sapiens; NCI-H69 cells, 72 hours
Experimental: as §1

HEP3B = details: Homo sapiens; HEP3B cells, 72 hours
Experimental: as §1

ANBL-6 = details: Homo sapiens; ANBL-6 cells, 72 hours
Experimental: as §1

Colo-205 = details: Homo sapiens; Colo-205 cells, 72 hours
Experimental: as §1

HEL.92.1.7 = details: Homo sapiens; HEL.92.1.7 cells, 72 hours
Experimental: as §1

Colo-201 = details: Homo sapiens; Colo-201 cells, 72 hours
Experimental: as §1

SW-48 = details: Homo sapiens, SW48; SW-48 cells, 72 hours
Experimental: as §1

PATU-8902 = PATU-8902 cells, 72 hours
Experimental: as §1

HTB-38 = HTB-38 cells, 72 hours
Experimental: as §1

U118MG = details: Homo sapiens, U-118-MG; U118MG cells, 72 hours
Experimental: as §1

RL = details: Homo sapiens; RL cells, 72 hours
Experimental: as §1

SHP-77 = details: Homo sapiens, SHP77; SHP-77 cells, 72 hours
Experimental: as §1

SW-900 = details: Homo sapiens, SW900; SW-900 cells, 72 hours
Experimental: as §1

AML-193 = AML-193 cells, 72 hours
Experimental: as §1

NCI-H2030 = details: Homo sapiens; NCI-H2030 cells, 72 hours
Experimental: as §1

NCI-H1650 = details: Homo sapiens; NCI-H1650 cells, 72 hours
Experimental: as §1

NCI-H1993 = details: Homo sapiens; NCI-H1993 cells, 72 hours
Experimental: as §1

MS751 = MS751 cells, 72 hours
Experimental: as §1

HCC-2935 = details: Homo sapiens, HCC2935; HCC-2935 cells, 72 hours
Experimental: as §1

NCI-H820 = NCI-H820 cells, 72 hours
Experimental: as §1

SK-CO-1 = details: Homo sapiens; SK-CO-1 cells, 72 hours
Experimental: as §1

C6 = details: Rattus norvegicus; C6 cells, 72 hours
Experimental: as §1

NCI-H508 = details: Homo sapiens; NCI-H508 cells, 72 hours
Experimental: as §1

HuCCT-1 = details: Homo sapiens; HuCCT-1 cells, 72 hours
Experimental: as §1

MINO = details: Homo sapiens; MINO cells, 72 hours
Experimental: as §1

MSTO-211H = details: Homo sapiens; MSTO-211H cells, 72 hours
Experimental: as §1

AU-565 = details: Homo sapiens, AU565; AU-565 cells, 72 hours
Experimental: as §1

BL-40 = BL-40 cells, 72 hours
Experimental: as §1

Farage = Farage cells, 72 hours
Experimental: as §1

SW-480 = details: Homo sapiens, SW480; SW-480 cells, 72 hours
Experimental: as §1

NCI-H226 = details: Homo sapiens; NCI-H226 cells, 72 hours
Experimental: as §1

HCT116 = details: Homo sapiens, HCT-116; HCT116 cells, 72 hours
Experimental: as §1

HPAC = details: Homo sapiens; HPAC cells, 72 hours
Experimental: as §1

HeLa = details: Homo sapiens; HeLa cells, 72 hours
Experimental: as §1

Z-138 = details: Homo sapiens; Z-138 cells, 72 hours
Experimental: as §1

**Q.** NC(=O)/C(=C/n1cnc(-c2cc(C(F)(F)F)cc(C(F)(F)F)c2)n1)c1cncnc1 [Compound 124, (E)-3-(3-(3,5-bis(trifluoromethyl)phenyl)-1H-1,2,4-triazol-1-yl)-2-(pyrimidin-5-yl)acrylamide] was tested. Which IC50 (SNU-398) did it give?
**A.** The IC50 was 970 nM.

**Q.** And the IC50 (L3.6pl)?
**A.** The IC50 was 470 nM.

**Q.** What about the IC50 (DLD-1) of the same molecule?
**A.** Its IC50 is 800 nM.

**Q.** And the IC50 (RKO)?
**A.** Its IC50 is 450 nM.

**Q.** And the IC50 (NCI-H187)?
**A.** The IC50 was 530 nM.

**Q.** And the IC50 (NCI-H69)?
**A.** Its IC50 is 1640 nM.

**Q.** And the IC50 (HEP3B)?
**A.** Its IC50 is 300 nM.

**Q.** What about the IC50 (ANBL-6) of the same molecule?
**A.** The IC50 was 220 nM.

**Q.** What about the IC50 (Colo-205) of the same molecule?
**A.** The IC50 was 120 nM.

**Q.** What about the IC50 (HEL.92.1.7) of the same molecule?
**A.** Its IC50 is 230 nM.

**Q.** And the IC50 (Colo-201)?
**A.** Its IC50 is > 10000 nM.

**Q.** And the IC50 (SW-48)?
**A.** The IC50 was 120 nM.

**Q.** And the IC50 (PATU-8902)?
**A.** The IC50 was 410 nM.

**Q.** And the IC50 (HTB-38)?
**A.** The IC50 was > 10000 nM.

**Q.** What about the IC50 (U118MG) of the same molecule?
**A.** Its IC50 is 370 nM.

**Q.** What about the IC50 (RL) of the same molecule?
**A.** Its IC50 is 20 nM.

**Q.** What about the IC50 (SHP-77) of the same molecule?
**A.** The IC50 was 410 nM.

**Q.** And the IC50 (SW-900)?
**A.** Its IC50 is 1850 nM.

**Q.** What about the IC50 (AML-193) of the same molecule?
**A.** The IC50 was 1930 nM.

**Q.** And the IC50 (NCI-H2030)?
**A.** Its IC50 is 2050 nM.

**Q.** And the IC50 (NCI-H1650)?
**A.** Its IC50 is > 10000 nM.

**Q.** What about the IC50 (NCI-H1993) of the same molecule?
**A.** Its IC50 is > 10000 nM.

**Q.** What about the IC50 (MS751) of the same molecule?
**A.** The IC50 was 400 nM.

**Q.** What about the IC50 (HCC-2935) of the same molecule?
**A.** The IC50 was 6700 nM.

**Q.** What about the IC50 (NCI-H820) of the same molecule?
**A.** Its IC50 is 3400 nM.

**Q.** What about the IC50 (SK-CO-1) of the same molecule?
**A.** Its IC50 is 430 nM.

**Q.** What about the IC50 (C6) of the same molecule?
**A.** The IC50 was 150 nM.

**Q.** And the IC50 (NCI-H508)?
**A.** Its IC50 is 860 nM.

**Q.** What about the IC50 (HuCCT-1) of the same molecule?
**A.** Its IC50 is 50 nM.

**Q.** What about the IC50 (MINO) of the same molecule?
**A.** Its IC50 is 20 nM.

**Q.** What about the IC50 (MSTO-211H) of the same molecule?
**A.** The IC50 was 70 nM.

**Q.** What about the IC50 (AU-565) of the same molecule?
**A.** Its IC50 is 490 nM.

**Q.** And the IC50 (BL-40)?
**A.** Its IC50 is 400 nM.

**Q.** What about the IC50 (Farage) of the same molecule?
**A.** The IC50 was 460 nM.

**Q.** And the IC50 (SW-480)?
**A.** The IC50 was 10000 nM.

**Q.** And the IC50 (NCI-H226)?
**A.** The IC50 was 30 nM.

**Q.** What about the IC50 (HCT116) of the same molecule?
**A.** The IC50 was 110 nM.

**Q.** And the IC50 (HPAC)?
**A.** Its IC50 is 10000 nM.

**Q.** What about the IC50 (HeLa) of the same molecule?
**A.** Its IC50 is 1050 nM.

**Q.** And the IC50 (Z-138)?
**A.** Its IC50 is 6 nM.

Reference: patent US11945794B2, “Nuclear transport modulators and uses thereof” (Karyopharm Therapeutics Inc., priority 2013, dated 2024)
